The text below walks through data of patent EP0314302A2, “Herbicidal o-carbomethoxy-sulfonylureas” (E.I. DU PONT DE NEMOURS AND COMPANY, priority 1987, dated 1989).

The test system of the data set is Grapes. Description: Test 10 postemergence safety to crops and weed control. The following applies: scale 0-100. It counts as in vivo, Macedine grapes. The protocol: The object of these tests was to evaluate the compound of this invention for postemergence safety to crops and weed control. Seedling and budded Macedine grapes were grown in 11.4-cm pots. Flax, green foxtail (Setaria viridis), "Morex" barley, wild oats (Avena fatua), "Era" wheat, annual ryegrass (Lolium multiflorum), wild radish (Raphanus raphanistrum), rape, sunflower, chickweed (Stellaria media) and wild buckwheat (Polygonum convolvulus) were seeded in windowsill pots.
The plants were sprayed postemergence with Compound I in a non-phytotoxic solvent. Plants were visually rated 15 and 27 days after treatment (DAT). Injury and weed control ratings were based on the scale of 0 to 100 where 0 = no effect, 20 minimal control and 100 = complete control.

On to `COC(=O)c1cccnc1S(=O)(=O)NC(=O)Nc1nc(OC)cc(OC)n1` [Compound I, 2-[[(4,6-dimethoxypyrimidin-2-yl)aminocarbonyl]aminosulfonyl]-3-pyridinecarboxylic acid, methyl ester], for which the “Plant Injury Rating 27 DAT” value stood at 0 (Budded grapes, 1 g/ha); 0 (Budded grapes, 2 g/ha); 0 (Budded grapes, 4 g/ha); 0 (Budded grapes, 8 g/ha); 10 (Budded grapes, 16 g/ha); 10 (Budded grapes, 32 g/ha). The “Plant Injury Rating 27 DAT” value is recorded as 0 (Seedling grapes, 1 g/ha); 0 (Seedling grapes, 2 g/ha); 0 (Seedling grapes, 4 g/ha); 10 (Seedling grapes, 8 g/ha); 20 (Seedling grapes, 16 g/ha); 20 (Seedling grapes, 32 g/ha).
